One experiment addresses T1, PARP-1 (Homo sapiens, UniProt P09874).
T1 construct: purchased Trevigen (Gaithersburg, Md.); host or cells: E. coli
Description: PARP1 assay (inhibition of PARP, [3H]-NAD+ / biotinylated histone H1, FlashPlate scintillation). It counts as biochemical.

A further experiment deals with T2, PARP in C41 cells (Homo sapiens, UniProt P09874).
T2 construct: endogenous in cells; host or cells: C41 cells
Description: Cellular PARP assay (PAR formation after H2O2 DNA damage, anti-PAR immunofluorescence). It counts as cell-based. Particulars: compound 30 minutes, then 1 mM H2O2 for 10 minutes, FITC signal normalized with DAPI, read-out: Cell, EC50.

Where [1] appears, read: recombinant human PARP, 1 nM enzyme, 1.5 μM [3H]-NAD+, inhibition curves at various substrate concentrations, read-out: PARP-1 (Ki).

This is an account of results in patent publication US7790721B2, “Pyrroloquinoxalinone inhibitors of poly(ADP-ribose)polymerase” (Abbott Laboratories, priority 2006, dated 2010).

The structures appear in SMILES notation. Like-named read-outs stand apart in the source and are kept apart here.

T2 sequence (P09874 whole entry): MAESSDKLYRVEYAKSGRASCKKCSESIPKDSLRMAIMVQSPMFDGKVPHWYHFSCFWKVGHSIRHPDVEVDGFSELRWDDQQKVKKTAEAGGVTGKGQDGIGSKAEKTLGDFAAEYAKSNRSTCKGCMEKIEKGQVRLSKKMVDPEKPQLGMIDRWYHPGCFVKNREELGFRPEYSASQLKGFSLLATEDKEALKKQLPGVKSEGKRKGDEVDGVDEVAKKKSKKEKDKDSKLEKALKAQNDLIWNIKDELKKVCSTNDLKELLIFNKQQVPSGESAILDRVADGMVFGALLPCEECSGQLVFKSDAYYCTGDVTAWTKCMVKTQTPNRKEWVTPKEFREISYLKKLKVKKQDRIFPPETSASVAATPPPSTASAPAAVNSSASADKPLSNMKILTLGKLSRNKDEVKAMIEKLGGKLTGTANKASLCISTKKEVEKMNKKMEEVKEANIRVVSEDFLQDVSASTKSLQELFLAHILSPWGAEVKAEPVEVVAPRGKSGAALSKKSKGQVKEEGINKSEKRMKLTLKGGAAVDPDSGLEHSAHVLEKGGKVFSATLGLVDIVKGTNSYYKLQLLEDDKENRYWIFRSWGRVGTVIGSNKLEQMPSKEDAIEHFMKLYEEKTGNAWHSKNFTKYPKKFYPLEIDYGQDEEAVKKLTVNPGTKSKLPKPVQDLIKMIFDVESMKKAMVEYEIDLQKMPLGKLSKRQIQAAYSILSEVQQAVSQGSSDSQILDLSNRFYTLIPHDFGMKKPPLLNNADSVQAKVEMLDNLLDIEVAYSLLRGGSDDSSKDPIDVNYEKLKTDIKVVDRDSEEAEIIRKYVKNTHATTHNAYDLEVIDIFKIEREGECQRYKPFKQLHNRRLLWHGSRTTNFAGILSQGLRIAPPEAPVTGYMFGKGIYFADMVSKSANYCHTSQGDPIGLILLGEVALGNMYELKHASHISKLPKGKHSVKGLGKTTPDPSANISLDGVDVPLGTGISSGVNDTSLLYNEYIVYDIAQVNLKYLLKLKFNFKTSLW
T1 sequence (P09874 whole entry): as above
Description for PARP in C41 cells: C41 cells were treated with a compound of this invention for 30 minutes in 96 well plate. PARP was then activated by damaging DNA with 1 mM H2O2 for 10 minutes. The cells were then washed with ice-cold PBS once and fixed with pre-chilled methanol:acetone (7:3) at −20° C. for 10 minutes. After air-drying, the plates were rehydrated with PBS and blocked 5% non-fat dry milk in PBS-TWEEN20® (Sigma, St. Louis, Mo.) (0.05%) (blocking solution) for 30 minutes at room temperature. The cells were incubated with anti-PAR antibody 10H (1:50) in Blocking solution at 37° C. for 60 minutes followed by washing with PBS-TWEEN20® 5 times, and incubation with goat anti-mouse fluorescein 5(6)-isothiocyanate-coupled antibody (1:50) and 1 μg/ml 4′,6-diamidino-2-phenylindole (DAPI) in blocking solution at 37° C. for 60 minutes. […] The PARP activity (FITC signal) was normalized with cell numbers (DAPI).
Description for PARP-1: Nicotinamide[2,5′,8-3H]adenine dinucleotide and strepavidin SPA beads were purchased from Amersham Biosiences (Buckinghamshire, U.K.). […] NAD^+, histone, aminobenzamide, 3-amino benzamide and Calf Thymus DNA (dcDNA) were purchased from Sigma (St. Louis, Mo.). […] Biotinylated histone H1 was prepared by treating the protein with Sulfo-NHS-LC-Biotin from Pierce (Rockford, Ill.). The biotinylation reaction was conducted by slowly and intermittently adding 3 equivalents of 10 mM Sulfo-NHS-LC-Biotin to 100 μM Histone H1 in phosphate-buffered saline, pH 7.5, at 4° C. with gentle vortexing over 1 minute followed by subsequent 4° C. incubation for 1 hour. Streptavidin coated (FLASHPLATE PLUS®) microplates were purchased from Perkin Elmer (Waltham, Mass.).
PARP1 assay was conducted in PARP assay buffer containing 50 mM Tris pH 8.0, 1 mM DTT, 4 mM MgCl2. […] Auto reactions utilizing SPA bead-based detection were carried out in 100 μL volumes in white 96 well plates. Reactions were initiated by adding 50 μl of 2× NAD^+ substrate mixture to 50 μL of 2× enzyme mixture containing PARP and DNA. […] 170 μL of the stopped reaction mixtures were transferred to streptavidin FLASHPLATE PLUS®, incubated for 1 hour, and counted using a TOPCOUNT® microplate scintillation counter from Perkin Elmer (Waltham, Mass.).

The compound `O=c1[nH]c2cc(CN3CCCC3)ccc2n2cccc12` [Example 7, 7-(pyrrolidin-1-ylmethyl)pyrrolo[1,2-a]quinoxalin-4(5H)-one] came in with an inhibition constant (Ki) on PARP-1 of 6 nM. Also, the EC50 at PARP in C41 cells is 5.4 nM.

Consider `O=c1[nH]c2ccc(CNC3CC3)cc2n2cccc12` [Example 12, 8-((cyclopropylamino)methyl)pyrrolo[1,2-a]quinoxalin-4(5H)-one], for which, on PARP-1, the Ki was found to be 32 nM. For the same compound, the EC50 at PARP in C41 cells came to 13 nM.

`CC(C)NCc1ccc2[nH]c(=O)c3cccn3c2c1` [Example 13, 8-((isopropylamino)methyl)pyrrolo[1,2-a]quinoxalin-4(5H)-one]: at PARP-1 (setting [1]), the inhibition constant (Ki) was found to be 44 nM. The EC50 at PARP in C41 cells amounted to 37 nM.

Regarding `CN(C)Cc1ccc2c(c1)NC(=O)C1CCCN21` (centres unmarked) [Example 44, 7-[(dimethylamino)methyl]-1,2,3,3a-tetrahydropyrrolo[1,2-a]quinoxalin-4(5H)-one], on PARP-1, the Ki turned out to be 60 nM. The EC50 on PARP in C41 cells turned out to be 143 nM.

As to `O=C1NCc2cc(CN3CCCCC3)ccc2-n2cccc21` [Example 57, 8-(piperidin-1-ylmethyl)-5,6-dihydro-4H-pyrrolo[1,2-a][1,4]benzodiazepin4-one], the Ki at PARP-1 (setting [1]) was 1140 nM.

Consider `O=C1NCc2cc(CNC3CCCCC3)ccc2-n2cccc21` [Example 58, 8-[(cyclohexylamino)methyl]-5,6-dihydro-4H-pyrrolo[1,2-a][1,4]benzodiazepin4-one], for which the Ki at PARP-1 (setting [1]) came to 1440 nM.

`COC(=O)CNCc1ccc2c(c1)[nH]c(=O)c1cccn12` [Example 59, Methyl N-[(4-oxo4,5-dihydropyrrolo[1,2-a]quinoxalin-7-yl)methyl]glycinate]: the inhibition constant (Ki) at PARP-1 (setting [1]) was found to be 534 nM.

With `O=C(O)CNCc1ccc2c(c1)[nH]c(=O)c1cccn12` [Example 60, N-[(4-oxo-4,5-dihydropyrrolo[1,2-a]quinoxalin-7-yl)methyl]glycine], at PARP-1 (setting [1]), the inhibition constant (Ki) came to 318 nM.

Turning to `O=C(NCCCN1CCOCC1)c1ccc2c(c1)[nH]c(=O)c1cccn12` [Example 63, N-(3-morpholin-4-ylpropyl)-4-oxo-4,5-dihydropyrrolo[1,2-a]quinoxaline-7-carboxamide], at PARP-1 (setting [1]), the Ki was 211 nM.

For the compound `O=C(NCC(=O)N1CCOCC1)c1ccc2c(c1)[nH]c(=O)c1cccn12` [Example 64, N-(2-morpholino-2-oxoethyl)-4-oxo-4,5-dihydropyrrolo[1,2-a]quinoxaline-7-carboxamide], the inhibition constant Ki at PARP-1 (setting [1]) was 369 nM.

With `CN(C)CCNCc1ccc2c(c1)[nH]c(=O)c1cccn12` [Example 65, 7-({[2-(dimethylamino)ethyl]amino}methyl)pyrrolo[1,2-a]quinoxalin-4(5H)-one], on PARP-1 (setting [1]), the Ki is 427 nM.

In the case of `CN1CCN(CCCNC(=O)c2ccc3c(c2)[nH]c(=O)c2cccn23)CC1` [Example 66, N-[3-(4-methylpiperazin-1-yl)propyl]-4-oxo4,5-dihydropyrrolo[1,2-a]quinoxaline-7-carboxamide], the Ki at PARP-1 (setting [1]) was determined as 23 nM. Besides, the EC50 at PARP in C41 cells amounted to 32 nM.

With `CN(C)CCNC(=O)c1ccc2c(c1)[nH]c(=O)c1cccn12` [Example 68, N-[2-(dimethylamino)ethyl]-4-oxo-4,5-dihydropyrrolo[1,2-a]quinoxaline-7-carboxamide], the inhibition constant Ki at PARP-1 (setting [1]) was 1630 nM.

Regarding `O=c1[nH]c2cc(CNCCCN3CCCCC3)ccc2n2cccc12` [Example 69, 7-{[(3-piperidin-1-ylpropyl)amino]methyl}pyrrolo[1,2-a]quinoxalin-4(5H)-one], the Ki on PARP-1 (setting [1]) is 129 nM.

`O=C(NCCCN1CCCCC1)c1ccc2c(c1)[nH]c(=O)c1cccn12` [Example 70, 4-oxo-N-(3-piperidin-1-ylpropyl)-4,5-dihydropyrrolo[1,2-a]quinoxaline-7-carboxamide]: the Ki on PARP-1 (setting [1]) came to 139 nM.

For the compound `O=c1[nH]c2cc(CNCCN3CCCCC3)ccc2n2cccc12` [Example 71, 7-{[(2-piperidin-1-ylethyl)amino]methyl}pyrrolo[1,2-a]quinoxalin-4(5H)-one], the Ki at PARP-1 (setting [1]) was 182 nM.

As to `CN(C)C1CCC(NCc2ccc3c(c2)[nH]c(=O)c2cccn23)CC1` (centres unmarked) [Example 72, 7-({[4-(dimethylamino)cyclohexyl]amino}methyl)pyrrolo[1,2-a]quinoxalin-4(5H)-one], the Ki on PARP-1 (setting [1]) was 163 nM.

As to `O=C(NCC(=O)N1CCCC1)c1ccc2c(c1)[nH]c(=O)c1cccn12` [Example 73, 4-oxo-N-(2-oxo-2-(pyrrolidin-1-yl)ethyl)-4,5-dihydropyrrolo[1,2-a]quinoxaline-7-carboxamide], the Ki at PARP-1 (setting [1]) came to 874 nM.

For `CN(C)C1CCC(NC(=O)c2ccc3c(c2)[nH]c(=O)c2cccn23)CC1` (centres unmarked) [Example 74, N-[4-(dimethylamino)cyclohexyl]-4-oxo4,5-dihydropyrrolo[1,2-a]quinoxaline-7-carboxamide], at PARP-1 (setting [1]), the Ki was 776 nM.

As for `O=C(Nc1cccc(S(=O)(=O)N2CCCCC2)c1)c1ccc2c(c1)[nH]c(=O)c1cccn12` [Example 75, 4-oxo-N-[3-(piperidin-1-ylsulfonyl)phenyl]4,5-dihydropyrrolo[1,2-a]quinoxaline-7-carboxamide], the inhibition constant (Ki) at PARP-1 (setting [1]) came out at 1640 nM.

`O=C(CNCc1ccc2c(c1)[nH]c(=O)c1cccn12)N1CCCC1` [Example 76, 7-((2-oxo-2-(pyrrolidin-1-yl)ethylamino)methyl)pyrrolo[1,2-a]quinoxalin-4(5H)-one]: the Ki on PARP-1 (setting [1]) was found to be 149 nM.

With `O=C(NCCN1CCSCC1)c1ccc2c(c1)[nH]c(=O)c1cccn12` [Example 78, 4-oxo-N-(2-thiomorpholin-4-ylethyl)-4,5-dihydropyrrolo[1,2-a]quinoxaline-7-carboxamide], the inhibition constant (Ki) on PARP-1 (setting [1]) was found to be 86 nM.

`CN(C)C(=O)c1ccc2c(c1)[nH]c(=O)c1cccn12` [Example 79, N,N-dimethyl-4-oxo-4,5-dihydropyrrolo[1,2-a]quinoxaline-7-carboxamide]: at PARP-1 (setting [1]), the inhibition constant Ki worked out at 615 nM.

As to `CCN1CCCC(NC(=O)c2ccc3c(c2)[nH]c(=O)c2cccn23)C1` (centres unmarked) [Example 80, N-(1-ethylpiperidin-3-yl)4-oxo-4,5-dihydropyrrolo[1,2-a]quinoxaline-7carboxamide], the Ki on PARP-1 (setting [1]) was determined as 113 nM.

Take `O=C(NCCCCc1ccccc1)c1ccc2c(c1)[nH]c(=O)c1cccn12` [Example 81, 4-oxo-N-(4-phenylbutyl)-4,5-dihydropyrrolo[1,2-a]quinoxaline-7-carboxamide]: the Ki at PARP-1 (setting [1]) was 94 nM.

As for `O=C(Nc1ccc(N2CCN(Cc3ccccc3)CC2)cc1)c1ccc2c(c1)[nH]c(=O)c1cccn12` [Example 83, N-[4-(4-benzylpiperazin-1-yl)phenyl]-4-oxo4,5-dihydropyrrolo[1,2-a]quinoxaline-7-carboxamide], the Ki at PARP-1 (setting [1]) was determined as 58 nM.

Regarding `O=C(Nc1nccs1)c1ccc2c(c1)[nH]c(=O)c1cccn12` [Example 84, 4-oxo-N-1,3-thiazol-2-yl-4,5-dihydropyrrolo[1,2-a]quinoxaline-7-carboxamide], the inhibition constant (Ki) at PARP-1 (setting [1]) came out at 98 nM.

With `O=C(c1ccc2c(c1)[nH]c(=O)c1cccn12)N1CCCCC1` [Example 85, 7-(piperidin-1-ylcarbonyl)pyrrolo[1,2-a]quinoxalin-4(5H)-one], at PARP-1 (setting [1]), the inhibitory constant (Ki) was 16 nM. For the same compound, on PARP in C41 cells, the 50% effective concentration (EC50) is 23 nM.

For the compound `NC1CCN(Cc2ccc3c(c2)[nH]c(=O)c2cccn23)CC1` [Example 86, 7-[(4-aminopiperidin-1-yl)methyl]pyrrolo[1,2-a]quinoxalin-4(5H)-one], at PARP-1 (setting [1]), the Ki came out at 35 nM. Moreover, at PARP in C41 cells, the EC50 worked out at 204 nM.

As to `NC1CCN(C(=O)c2ccc3c(c2)[nH]c(=O)c2cccn23)CC1` [Example 87, 7-[(4-aminopiperidin-1-yl)carbonyl]pyrrolo[1,2-a]quinoxalin-4(5H)-one], the inhibition constant Ki on PARP-1 (setting [1]) was found to be 77 nM.

On to `O=C(c1ccc2c(c1)[nH]c(=O)c1cccn12)N1CCCNCC1` [Example 88, 7-(1,4-diazepan-1-ylcarbonyl)pyrrolo[1,2-a]quinoxalin-4(5H)-one], for which the inhibition constant (Ki) on PARP-1 (setting [1]) came out at 8690 nM.
